Measured values taken from patent US5079358A, “6H-pyrazolo-[4,5,1-d,e]acridin-6-one derivatives having anit-tumor activity” (Kyowa Hakko Kogyo Co., Ltd., priority 1988, dated 1992).
≈ marks a conversion by molar mass, not a printed value. Read-outs that look alike come from different tables or passages of the source.

Tests used:
P388 ascites tumor = assay: Effect on P388 ascites tumor (increased life span); format: in vivo; details: intraperitoneal, 24 hours after implantation, male CDF1 mouse
Experimental: Effect on P388 ascites tumor:
P388 tumor cells (10^6 cells) were implanted intraperitoneally into a DBA/2 mouse and the cells were collected from the ascitic fluid of the animal 7 days after the implantation. The cells were ashed once with sterilized physiological saline solution and then suspended in a sterilized physiological saline solution to prepare a cell suspension containing 5×10^6 cells/ml. The suspension (0.2 ml) was intraperitoneally inoculated into a male CDF1 mouse aged 6 weeks. A test compound was dissolved in physiological saline solution and intraperitoneally administered to the animal 24 hours after implantation of the tumor cells. One test group comprised 5 mice. The mean survival time (days) of a test group which received a test compound at a specified concentration was calculated as T from survival days of animals in the group. ON the other hand, the mean survival time (days) of the non-administered group (C) was obtained in the same manner, and the increased life span (ILS %) was calculated as [(T-C)/C]×100 (%).

[1] = system: human cancer cells (HeLaS3); assay: Inhibitory effect on growth of human cancer cells (HeLaS3); format: cell-based; details: Neutral Red staining, 550 nm
Experimental: Inhibitory effect on growth of human cancer cells (HeLaS3):
HeLaS, cells were suspended in a medium comprising MEM medium (Nissui Pharmaceutical Co., Ltd.) and 2 mM glutamine (hereinafter referred to as Medium A) to a concentration of 3×10^4 cells/ml. The cell suspension thus prepared was put into wells of a 96-well microtiter plate in an amount of 0.1 ml/well. The cells on the plate were incubated in a CO2 -incubater at 37° C. for 20 hours, and 0.05 ml of a sample containing a test compound and appropriately diluted with Medium A was added to each well. The cells were further incubated in the CO2 -incubater at 37° C. for 72 hours. After the culture supernatant was removed, a medium comprising Medium A and 0.02% Neutral Red was added to the residue in an amount of 0.1 ml/well, followed by incubation at 37° C. for one hour in the CO2 -incubater, whereby the cells were stained. The culture supernatant was removed and the residue was washed once with physiological saline solution. The pigment was extracted with 0.001 N-HCl/30%-ethanol, and the absorbance was determined at 550 nm with a microplate reader. The absorbance determined for intact cells was compared with that for the cells treated with the test compound of a known concentration, and the concentration of the test compound for inhibiting 50% growth of the cells (IC50) was calculated.

[2] = Acute toxicity (LD50), single intravenous administration to male ddy mice; details: mouse, in vivo, 14 days observation, Probit's method
Experimental: A test compound was administered intravenously once to male ddy mice. One test group comprised ten mice. […] LD50 was calculated from the death rate of each group in accordance with Probit's method.

[3] = Homo sapiens, HeLa S3, 72 hours at 37° C., read-out: IC50

Q: With `CN(C)CCNCc1nn2c3ccccc3c(=O)c3c(NCCN(C)C)ccc1c32` [Compound 23, 5-(2-Dimethylaminoethyl)amino-2-(2-dimethylaminoethyl)aminomethyl-6H-pyrazolo[4,5,1-d,e]acridin-6-one] as the compound, how does the ILS at 50 mg/kg (P388 ascites tumor; P388, ip) read?
A: 46%

Q: For `O=c1c2c(O)cccc2n2nc(CNCCOCCO)c3ccc(NCCNCCO)c1c32` [Compound 66, 7-Hydroxy-5-[2-(2-hydroxyethylamino)ethyl]amino-2-[2-(2-hydroxyethyloxy)ethyl]aminomethyl-6H-pyrazolo[4,5,1-d,e]acridin-6-one], which ILS at 12.5 mg/kg (P388 ascites tumor; P388, ip) is on record?
A: > 133%

Q: For `COc1cccc2c1c(=O)c1c(NCCN)ccc3c(CNCCN)nn2c31` [Compound 25, 5-(2-Aminoethyl)amino-2-(2-aminoethyl)aminomethyl-7-methoxy-6H-pyrazolo[4,5,1-d,e]acridin-6-one], which ILS at 25 mg/kg (P388 ascites tumor; P388, ip) is on record?
A: 39%

Q: For `NCCCNCc1nn2c3ccccc3c(=O)c3c(NCCCN)ccc1c32` [Compound 22, 5-(3-Aminopropyl)amino-2-(3-aminopropyl)aminomethyl-6H-pyrazolo[4,5,1-d,e]acridin-6-one], which IC50 [1, 3] is on record?
A: 0.078 µg/mL (≈ 0.206 µM)

Q: What about the ILS at 25 mg/kg (P388 ascites tumor; P388, ip) of the same compound?
A: 52%

Q: For `NCCNc1ccc2c(CNCCSCCO)nn3c4cccc(O)c4c(=O)c1c23` [Compound 59, 5-(2-Aminoethyl)amino-7-hydroxy-2-[2-(2-hydroxyethylthio)ethyl]aminomethyl-6H-pyrazolo[4,5,1-d,e]acridin-6-one], which ILS at 12.5 mg/kg (P388 ascites tumor; P388, ip) is on record?
A: > 134%

Q: Which ILS at 37.5 mg/kg (P388 ascites tumor; P388, ip, dose 37.5 mg/kg) does the source give for `NCCNCc1nn2c3ccccc3c(=O)c3c(NCCN)ccc1c32` [Compound 21, 5-(2-Aminoethyl)amino-2-(2-aminoethyl)aminomethyl-6H-pyrazolo[4,5,1-d,e]acridin-6-one] here?
A: 50%

Q: For `NCCNCc1nn2c3cccc(O)c3c(=O)c3c(NCCN)ccc1c32` [Compound 28, 5-(2-Aminoethyl)amino-2-(2-aminoethyl)aminomethyl-7-hydroxy-6H-pyrazolo[4,5,1-d,e]acridin-6-one], which ILS at 12.5 mg/kg (P388 ascites tumor; P388, ip) is on record?
A: > 154%

Q: What about the LD50 at 336 h [2] of the same compound?
A: 15.7 mg/kg

Q: Which results are given for `CN(C)CCNc1ccc2c(CN(CCO)CCO)nn3c4cccc(O)c4c(=O)c1c23` [Compound 51, 2-Bis(2-hydroxyethyl)aminomethyl-5-(2-dimethylaminoethyl)amino-7-hydroxy-6H-pyrazolo[4,5,1-d,e]acridin-6-one]?
A: ILS at 25 mg/kg (P388 ascites tumor; P388, ip): > 186%; LD50 at 336 h [2]: 15.7 mg/kg

Q: With `CO[C@@]12[C@H](COC(N)=O)C3=C(C(=O)C(C)=C(N)C3=O)N1C[C@@H]1N[C@@H]12` [Mitomycin C, reference compound] as the compound, how does the ILS at 4 mg/kg (P388 ascites tumor; P388, ip, dose 4-6 mg/kg) read?
A: 57 to 67%

Q: For `COc1cccc2c1c(=O)c1c(NCCCN)ccc3c(CNCCCN)nn2c31` [Compound 26, 5-(3-Aminopropyl)amino-2-(3-aminopropyl)aminomethyl-7-methoxy-6H-pyrazolo[4,5,1-d,e]acridin-6-one], which IC50 [1, 3] is on record?
A: 0.22 µg/mL (≈ 0.539 µM)

Q: What about the ILS at 25 mg/kg (P388 ascites tumor; P388, ip) of the same compound?
A: 28%

Q: With `NCCNCc1nn2c3cccc(O)c3c(=O)c3c(NCCNCCO)ccc1c32` [Compound 46, 2-(2-Aminoethyl)aminomethyl-7-hydroxy-5-[2-(2-hydroxyethylamino)ethyl]amino-6H-pyrazolo[4,5,1-d,e]acridin-6-one] as the compound, how does the IC50 [1, 3] read?
A: 0.003 µg/mL (≈ 0.00731 µM)

Q: And the ILS at 25 mg/kg (P388 ascites tumor; P388, ip)?
A: > 156%

Q: With `O=c1c2c(O)cccc2n2nc(CNCCN3CCOCC3)c3ccc(NCCN4CCOCC4)c1c32` [Compound 56, 7-Hydroxy-5-(2-morpholinoethyl)amino-2-(2-morpholinoethyl)aminomethyl-6H-pyrazolo[4,5,1-d,e]acridin-6-one] as the compound, how does the IC50 [1, 3] read?
A: 0.26 µg/mL (≈ 0.513 µM)

Q: What about the ILS at 100 mg/kg (P388 ascites tumor; P388, ip, dose 100 mg/kg) of the same compound?
A: 121%

Q: With `O=c1c2ccccc2n2nc(CN(CCCl)CCCl)c3cccc1c32` [Compound 9, 2-Bis(2-chloroethyl)aminomethyl-6H-pyrazolo[4,5,1-d,e]acridin-6-one] as the compound, how does the IC50 ([1]; 72 hours at 37° C.) read?
A: 0.92 µg/mL (≈ 2.46 µM)

Q: What about the “ILS (%)” value (P388 ascites tumor; dose 18.8 mg/kg) of the same compound?
A: 28%

Q: With `CN(C)CCNCc1nn2c3cccc(O)c3c(=O)c3c(NCCN(C)C)ccc1c32` [Compound 30, 5-(2-Dimethylaminoethyl)amino-2-(2-dimethylaminoethyl)aminomethyl-7-hydroxy-6H-pyrazolo[4,5,1-d,e]acridin-6-one] as the compound, how does the ILS at 50 mg/kg (P388 ascites tumor; P388, ip) read?
A: 61%

Q: Which results are given for `NCCNCCNc1ccc2c(CNCCN)nn3c4cccc(O)c4c(=O)c1c23` [Compound 48, 5-[2-(2-Aminoethylamino)ethyl]amino-2-(2-aminoethyl)aminomethyl-7-hydroxy-6H-pyrazolo[4,5,1-d,e]acridin-6-one]?
A: IC50 [1, 3]: 0.0026 µg/mL (≈ 0.00635 µM); ILS at 50 mg/kg (P388 ascites tumor; P388, ip): > 200%

Q: For `CN(C)CCCNCc1nn2c3cccc(O)c3c(=O)c3c(NCCCN(C)C)ccc1c32` [Compound 70, 5-(3-Dimethylaminopropyl)amino-2-(3-dimethylaminopropyl)aminomethyl-7-hydroxy-6H-pyrazolo[4,5,1-d,e]acridin-6-one], which ILS at 12.5 mg/kg (P388 ascites tumor; P388, ip) is on record?
A: > 112%

Q: Which ILS at 75 mg/kg (P388 ascites tumor; P388, ip, dose 75 mg/kg) does the source give for `O=c1c2c(O)cccc2n2nc(CNCCO)c3ccc(Br)c1c32` [Compound 67, 5-Bromo-7-hydroxy-2-(2-hydroxyethyl)aminomethyl-6H-pyrazolo[4,5,1-d,e]acridin-6-one] here?
A: 31%

Q: With `NCCNc1ccc2c(CNCCOCCO)nn3c4cccc(O)c4c(=O)c1c23` [Compound 62, 5-(2-Aminoethyl)amino-7-hydroxy-2-[2-(2-hydroxyethyloxy)ethyl]aminomethyl-6H-pyrazolo[4,5,1-d,e]acridin-6-one] as the compound, how does the IC50 [1, 3] read?
A: 0.0023 µg/mL (≈ 0.00559 µM)

Q: With `NCCCNCc1nn2c3cccc(O)c3c(=O)c3c(NCCCN)ccc1c32` [Compound 29, 5-(3-Aminopropyl)amino-2-(3-aminopropyl)aminomethyl-7-hydroxy-6H-pyrazolo[4,5,1-d,e]acridin-6-one] as the compound, how does the IC50 [1, 3] read?
A: 0.014 µg/mL (≈ 0.0355 µM)

Q: What about the ILS at 12.5 mg/kg (P388 ascites tumor; P388, ip) of the same compound?
A: > 121%

Q: With `CCN(CC)CCNCc1nn2c3ccccc3c(=O)c3c(NCCN(CC)CC)ccc1c32` [Compound 36, 5-(2-Diethylaminoethyl)amino-2-(2-diethylaminoethyl)aminomethyl-6H-pyrazolo[4,5,1-d,e]acridin-6-one] as the compound, how does the IC50 [1, 3] read?
A: 3.1 µg/mL (≈ 6.7 µM)

Q: Which ILS at 25 mg/kg (P388 ascites tumor; P388, ip) does the source give for `NCCNc1ccc2c(CN(CCO)CCO)nn3c4cccc(O)c4c(=O)c1c23` [Compound 53, 5-(2-Aminoethyl)amino-2-bis(2-hydroxyethyl)aminomethyl-7-hydroxy-6H-pyrazolo[4,5,1-d,e]acridin-6-one] here?
A: > 100%

Q: What about the LD50 at 336 h [2] of the same compound?
A: 25 mg/kg
